The results in this text go back to ChEMBL document CHEMBL5537194, “Tight-Binding Small-Molecule Carboxylesterase 2 Inhibitors Reduce Intracellular Irinotecan Activation” (J Med Chem, 2024).

The target in data set [1] is T1, Cocaine esterase (Homo sapiens, UniProt O00748).
T1 sequence (O00748 whole entry): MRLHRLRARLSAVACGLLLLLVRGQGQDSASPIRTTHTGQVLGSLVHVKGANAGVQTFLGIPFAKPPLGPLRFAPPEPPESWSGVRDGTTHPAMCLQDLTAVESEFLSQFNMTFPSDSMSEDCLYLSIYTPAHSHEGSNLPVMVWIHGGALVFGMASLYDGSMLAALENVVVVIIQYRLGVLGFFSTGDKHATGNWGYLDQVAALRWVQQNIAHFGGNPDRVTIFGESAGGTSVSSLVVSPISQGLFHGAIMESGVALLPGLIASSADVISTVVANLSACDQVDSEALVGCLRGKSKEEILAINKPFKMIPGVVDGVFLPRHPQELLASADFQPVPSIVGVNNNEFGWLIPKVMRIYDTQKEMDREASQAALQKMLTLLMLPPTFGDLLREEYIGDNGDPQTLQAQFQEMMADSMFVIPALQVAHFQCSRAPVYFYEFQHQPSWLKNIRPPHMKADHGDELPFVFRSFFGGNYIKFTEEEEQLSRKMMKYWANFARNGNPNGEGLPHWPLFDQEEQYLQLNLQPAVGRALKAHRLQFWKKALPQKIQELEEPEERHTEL
The data set can be described thus: Inhibition of human recombinant CES2 activity assessed as fluorescence of the AP product using Benz-AP as substrate.

Data set [2] deals with T2, CES2 (cocaine esterase) (Homo sapiens, UniProt O00748).
T2 sequence (O00748 whole entry): T1 sequence (O00748 whole entry)
The data set can be described thus: Inhibition of human recombinant CES2 activity assessed as fluorescence of the AP product using Benz-AP as substrate by measuring residual activity at 40 uM relative to control. As to conditions: recombinant CES2, probe Benz-AP.

Data set [3] in a line: Inhibition of human CES1 activity at 40 uM measured after 20 mins.
Data set [4] has as its system PANC-1. Briefly: Cytotoxicity against human PANC-1 cells assessed as cell viability incubated for 14 days by crystal violet-based clonogenic assay. The note with it: PANC-1, 336 h.
For data set [5], the target named is T2, CES2 (cocaine esterase). Briefly: in vitro. As to conditions: recombinant CES2, probe CPT-11 (conversion to SN-38).

Usually IC50 stands for the midpoint of a concentration-inhibition curve. Regarding `Cc1ccc(CN2Cc3cc4ccc(C)c(C)c4nc3OC2=O)o1`, the IC50 in data set [1] is 18 nM; in data set [3] it was 61 nM. For the same compound, the activity at 40 µM in data set [2] is 0.2%.
As to `CCc1c2c(nc3ccc(OC(=O)N4CCC(N5CCCCC5)CC4)cc13)-c1cc3c(c(=O)n1C2)COC(=O)[C@]3(O)CC` [IRINOTECAN], in data set [4], the 50% inhibitory concentration (IC50) is 11000 nM.
As usually defined, the inhibition is the relative decrease from the control value, in per cent. As to `CC(C)CN1C(=O)CCc2cc(NC(=O)Cc3cccc(F)c3)ccc21`, the IC50 in data set [1] amounted to 177 nM. In addition, the activity at 40 µM in data set [2] was -0.17%. Further, the inhibition at 10 min, 12 µM in data set [5] is 95%.
As for `O=C(CSc1cn(CC(=O)N2CCCC2)c2ccccc12)Nc1ccc(F)cc1F`, the half-maximal inhibitory concentration (IC50) in data set [1] is < 10 nM. Moreover, the activity at 40 µM in data set [2] was 0.9%. Moreover, the inhibition at 10 min, 12 µM in data set [5] was determined as 91%.
The corresponding values for `COc1cc2c(cc1OC)C(C)N(C(=O)c1cc3c(s1)-c1ccccc1S(=O)(=O)C3)CC2` (configuration not stated) are < 10 nM, 13% and 31%.
Consider `CCOc1ccc2ncc(S(=O)(=O)c3ccc(OC)cc3)c(N3CCC4(CC3)OCCO4)c2c1`, for which the concentration for half-maximal inhibition (IC50) in data set [1] was 66 nM. The activity at 40 µM in data set [2] was 1.3%. Also, in data set [5], the inhibition at 10 min, 12 µM amounted to 94%.
In the case of `CCn1c(=O)c2sc(N3CCCC3)nc2n(CC(=O)Nc2cccc(Cl)c2C)c1=O`, the activity at 40 µM in data set [2] is 37%. Besides, the inhibition at 10 min, 12 µM in data set [5] came to 51%.
As to `Cc1ccc(Nc2nc(C(=O)NCc3ccccc3)cc3occc23)cc1`, in data set [1], the IC50 was < 10 nM. In addition, the activity at 40 µM in data set [2] turned out to be 3%. For the same compound, the inhibition at 10 min, 12 µM in data set [5] was determined as 63%.
Consider `CC(C)c1ccccc1OC(=O)NCCc1ccc2ccccc2c1`, for which the midpoint of inhibition in data set [3], the IC50, lay at 23 nM.
